Experimental data reported in patent US9611277B2 (Janssen Pharmaceutica NV, priority 2013, dated 2017).

Tests used:
[1] = molecular target: rat orexin 1 receptor (Rattus norvegicus, UniProt P56718); test: Rat orexin 1 receptor radioligand binding; conditions: rat orexin 1 receptor; averages of 2-20 runs; read-out: rOX1 Ki
How it was run: (§1)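 Competition binding with the tritiated thiazolyl-pyrrolidinyl-methanone radioligand in PBS on homogenized rat or human OX1R-expressing cell suspensions, ≤0.1% DMSO; nonspecific binding defined with 10 μM almorexant. Bound radioactivity read by scintillation after filtration; IC50 from one-site competition fit, converted to Ki using pre-determined radioligand Kd.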

[2] = molecular target: human orexin 2 receptor (Homo sapiens (Human), UniProt O43614); test: Human orexin 2 receptor radioligand binding; conditions: human orexin 2 receptor; averages of 2-20 runs; read-out: hOX2 Ki
How it was run: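 HEK293 cells stably expressing human OX2 receptor, homogenized, incubated with [3H]-EMPA and compounds (DMSO ≤0.1%); nonspecific binding with 10 μM almorexant. Filter-bound radioactivity counted by scintillation; IC50 from one-site competition fit of triplicates, Ki from IC50 and predetermined radioligand Kd, averaged over 2-20 runs.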

[3] = molecular target: human orexin 1 receptor (Homo sapiens, UniProt O43613); test: Human orexin 1 receptor radioligand binding; conditions: human orexin 1 receptor; averages of 2-20 runs; read-out: hOX1 Ki
How it was run: as §1

Sequence of human orexin 2 receptor (O43614 whole entry): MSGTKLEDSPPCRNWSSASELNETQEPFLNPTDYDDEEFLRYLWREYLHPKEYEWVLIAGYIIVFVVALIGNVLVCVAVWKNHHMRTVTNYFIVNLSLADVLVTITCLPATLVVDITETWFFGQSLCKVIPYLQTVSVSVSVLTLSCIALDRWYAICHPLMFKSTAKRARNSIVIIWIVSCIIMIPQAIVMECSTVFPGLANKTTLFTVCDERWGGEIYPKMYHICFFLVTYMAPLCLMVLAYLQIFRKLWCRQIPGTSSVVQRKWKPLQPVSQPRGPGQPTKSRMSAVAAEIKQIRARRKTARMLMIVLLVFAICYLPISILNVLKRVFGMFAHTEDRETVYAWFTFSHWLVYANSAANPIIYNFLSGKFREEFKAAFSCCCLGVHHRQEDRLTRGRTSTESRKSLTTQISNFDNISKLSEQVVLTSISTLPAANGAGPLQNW

Ki [1] [nM] | Ki [2] [nM] | Ki [3] [nM] | Structure (SMILES)
12 | 3100 | 13 | O=C(c1ccc(F)cc1-c1ncccn1)N1C[C@H]2C[C@@H](Nc3ncc(C(F)(F)F)cn3)[C@@H]1C2 [Example 227, (4-fluoro-2-(pyrimidin-2-yl)phenyl)((1S,4S,6R)-6-((5-(trifluoromethyl)pyrimidin-2-yl)amino)-2-azabicyclo[2.2.1]heptan-2-yl)methanone]
11 | 544 | 9 | O=C(c1cc(F)ccc1-c1ncccn1)N1C[C@H]2C[C@@H](Nc3ncc(C(F)(F)F)cn3)[C@@H]1C2 [Example 228, (5-fluoro-2-(pyrimidin-2-yl)phenyl)((1S,4S,6R)-6-((5-(trifluoromethyl)pyrimidin-2-yl)amino)-2-azabicyclo[2.2.1]heptan-2-yl)methanone]
9 | 724 | 11 | O=C(c1c(F)cccc1-c1ncccn1)N1C[C@H]2C[C@@H](Nc3ncc(C(F)(F)F)cn3)[C@@H]1C2 [Example 229, (2-fluoro-6-(pyrimidin-2-yl)phenyl)((1S,4S,6R)-6-((5-(trifluoromethyl)pyrimidin-2-yl)amino)-2-azabicyclo[2.2.1]heptan-2-yl)methanone]
4 | 470 | 4 | O=C(c1ccccc1-c1ncccn1)N1C[C@H]2C[C@@H](Nc3ncc(C(F)(F)F)cn3)[C@@H]1C2 [Example 230, (2-(pyrimidin-2-yl)phenyl)((1S,4S,6R)-6-((5-(trifluoromethyl)pyrimidin-2-yl)amino)-2-azabicyclo[2.2.1]heptan-2-yl)methanone]
9 | 1300 | 12 | O=C(c1ccccc1-c1ncc(F)cn1)N1C[C@H]2C[C@@H](Nc3ncc(C(F)(F)F)cn3)[C@@H]1C2 [Example 231, (2-(5-fluoropyrimidin-2-yl)phenyl)((1S,4S,6R)-6-((5-(trifluoromethyl)pyrimidin-2-yl)amino)-2-azabicyclo[2.2.1]heptan-2-yl)methanone]
24 | 1350 | 25 | O=C(c1c(F)cccc1-c1ncco1)N1C[C@H]2C[C@@H](Nc3ncc(C(F)(F)F)cn3)[C@@H]1C2 [Example 232, (2-fluoro-6-(oxazol-2-yl)phenyl)((1S,4S,6R)-6-((5-(trifluoromethyl)pyrimidin-2-yl)amino)-2-azabicyclo[2.2.1]heptan-2-yl)methanone]
17 | 827 | 12 | O=C(c1cccc(F)c1-n1nccn1)N1C[C@H]2C[C@@H](Nc3ncc(Cl)cn3)[C@@H]1C2 [Example 234, ((1S,4S,6R)-6-((5-chloropyrimidin-2-yl)amino)-2-azabicyclo[2.2.1]heptan-2-yl)(3-fluoro-2-(2H-1,2,3-triazol-2-yl)phenyl)methanone]
36 | 1300 | 41 | O=C(c1cc(F)ccc1-n1nccn1)N1C[C@H]2C[C@@H](Nc3ncc(Cl)cn3)[C@@H]1C2 [Example 235, ((1S,4S,6R)-6-((5-chloropyrimidin-2-yl)amino)-2-azabicyclo[2.2.1]heptan-2-yl)(5-fluoro-2-(2H-1,2,3-triazol-2-yl)phenyl)methanone]
10 | 1020 | 9 | O=C(c1cccc(F)c1-c1ncccn1)N1C[C@H]2C[C@@H](Nc3ncc(Cl)cn3)[C@@H]1C2 [Example 236, ((1S,4S,6R)-6-((5-chloropyrimidin-2-yl)amino)-2-azabicyclo[2.2.1]heptan-2-yl)(3-fluoro-2-(pyrimidin-2-yl)phenyl)methanone]

The remaining lines, values behind:

Structure (SMILES) | Ki [1] [nM] | Ki [2] [nM] | Ki [3] [nM]
O=C(c1cccc(F)c1-c1ncccn1)N1C[C@H]2C[C@@H](Nc3cnc(Cl)cn3)[C@@H]1C2 [Example 214, ((1S,4S,6R)-6-((5-chloropyrazin-2-yl)amino)-2-azabicyclo[2.2.1]heptan-2-yl)(3-fluoro-2-(pyrimidin-2-yl)phenyl)methanone] | 13 | 708 | 14
O=C(c1ccccc1-c1ncccn1)N1C[C@H]2C[C@@H](Nc3cnc(Cl)cn3)[C@@H]1C2 [Example 215, ((1S,4S,6R)-6-((5-chloropyrazin-2-yl)amino)-2-azabicyclo[2.2.1]heptan-2-yl)(2-(pyrimidin-2-yl)phenyl)methanone] | 12 | 435 | 13
Cc1cnc(N[C@@H]2C[C@H]3C[C@@H]2N(C(=O)c2cccc(F)c2-n2nccn2)C3)cn1 [Example 217, (3-fluoro-2-(2H-1,2,3-triazol-2-yl)phenyl)((1S,4S,6R)-6-((5-methylpyrazin-2-yl)amino)-2-azabicyclo[2.2.1]heptan-2-yl)methanone] | 12 | 390 | 29
Cc1cnc(N[C@@H]2C[C@H]3C[C@@H]2N(C(=O)c2cc(F)ccc2-n2nccn2)C3)cn1 [Example 218, (5-fluoro-2-(2H-1,2,3-triazol-2-yl)phenyl)((1S,4S,6R)-6-((5-methylpyrazin-2-yl)amino)-2-azabicyclo[2.2.1]heptan-2-yl)methanone] | 31 | 490 | 49
Cc1cnc(N[C@@H]2C[C@H]3C[C@@H]2N(C(=O)c2cccc(F)c2-c2ncccn2)C3)cn1 [Example 219, (3-fluoro-2-(pyrimidin-2-yl)phenyl)((1S,4S,6R)-6-((5-methylpyrazin-2-yl)amino)-2-azabicyclo[2.2.1]heptan-2-yl)methanone] | 20 | 480 | 27
Cc1cnc(N[C@@H]2C[C@H]3C[C@@H]2N(C(=O)c2ccccc2-c2ncccn2)C3)cn1 [Example 220, ((1S,4S,6R)-6-((5-methylpyrazin-2-yl)amino)-2-azabicyclo[2.2.1]heptan-2-yl)(2-(pyrimidin-2-yl)phenyl)methanone] | 11 | 284 | 17
O=C(c1cccc(F)c1-n1nccn1)N1C[C@H]2C[C@@H](Nc3ncc(C(F)(F)F)cn3)[C@@H]1C2 [Example 223, (3-fluoro-2-(2H-1,2,3-triazol-2-yl)phenyl)((1S,4S,6R)-6-((5-(trifluoromethyl)pyrimidin-2-yl)amino)-2-azabicyclo[2.2.1]heptan-2-yl)methanone] | 11 | 619 | 6
O=C(c1ccc(F)cc1-n1nccn1)N1C[C@H]2C[C@@H](Nc3ncc(C(F)(F)F)cn3)[C@@H]1C2 [Example 224, (4-fluoro-2-(2H-1,2,3-triazol-2-yl)phenyl)((1S,4S,6R)-6-((5-(trifluoromethyl)pyrimidin-2-yl)amino)-2-azabicyclo[2.2.1]heptan-2-yl)methanone] | 37 | 1900 | 33
O=C(c1cc(F)ccc1-n1nccn1)N1C[C@H]2C[C@@H](Nc3ncc(C(F)(F)F)cn3)[C@@H]1C2 [Example 225, (5-fluoro-2-(2H-1,2,3-triazol-2-yl)phenyl)((1S,4S,6R)-6-((5-(trifluoromethyl)pyrimidin-2-yl)amino)-2-azabicyclo[2.2.1]heptan-2-yl)methanone] | 20 | 800 | 16
O=C(c1c(F)cccc1-n1nccn1)N1C[C@H]2C[C@@H](Nc3ncc(C(F)(F)F)cn3)[C@@H]1C2 [Example 226, (2-fluoro-6-(2H-1,2,3-triazol-2-yl)phenyl)((1S,4S,6R)-6-((5-(trifluoromethyl)pyrimidin-2-yl)amino)-2-azabicyclo[2.2.1]heptan-2-yl)methanone] | 17 | 874 | 19
